Measurements published in US20080167272A1, “Thalidomide metabolites and methods of use” (Auckland Uniservices Limited, priority 2005, published 2008).

Test system: Colon 38 tumours
Assay: Colon 38 tumour growth in mice, combination with cyclophosphamide
Format: in vivo
Conditions: CG 100 mg/kg plus cyclophosphamide 220 mg/kg; FIG. 9
Method: Mice (C57B1/6 bred at the Animal Resources Unit, University of Auckland, New Zealand) were implanted with Colon 38 tumours, obtained originally from the Mason Research Institute (Auckland, New Zewaland) by transferring 1 mm^3 pieces of the tumour into a subcutaneous opening in the left flank of anaesthetized mice. The mice with tumours were used for growth delay experiments when tumours had reached approximately 3-5 mm in diameter. […] Tumours were measured 2-3 times weekly after treatment and tumour volumes were calculated as 0.52×a^2×b, where a and b are the minor and major axes of the tumour. The arithmetic means and standard errors were calculated for each point, counting cured animals as having zero tumour volume, and expressed as fractions of the pre-treatment volume. Growth delay was determined as the difference in the number of days required for the tumour to reach four times the pre-treatment volume. […]

## O=C1CCC(NC(=O)c2ccccc2C(=O)O)C(=O)N1 (stereo not shown) [CG, 2-{[(2,6-Dioxo-3-piperidinyl)amino]carbonyl}benzoic acid]
  tumour size at day 15 after treatment, combination vs monotherapies: significantly smaller than those treated with each of the monotherapies
